Data on 21 compounds can be found in patent US12139473B2, “Substituted-N-heteroaryl compounds and uses thereof” (Bionomics Limited, priority 2019, dated 2024).

This test has as its target T1, hKv3.1 (Homo sapiens, UniProt P48547).
T1 construct: expressed in transfected cells
T1 sequence (P48547 1-511): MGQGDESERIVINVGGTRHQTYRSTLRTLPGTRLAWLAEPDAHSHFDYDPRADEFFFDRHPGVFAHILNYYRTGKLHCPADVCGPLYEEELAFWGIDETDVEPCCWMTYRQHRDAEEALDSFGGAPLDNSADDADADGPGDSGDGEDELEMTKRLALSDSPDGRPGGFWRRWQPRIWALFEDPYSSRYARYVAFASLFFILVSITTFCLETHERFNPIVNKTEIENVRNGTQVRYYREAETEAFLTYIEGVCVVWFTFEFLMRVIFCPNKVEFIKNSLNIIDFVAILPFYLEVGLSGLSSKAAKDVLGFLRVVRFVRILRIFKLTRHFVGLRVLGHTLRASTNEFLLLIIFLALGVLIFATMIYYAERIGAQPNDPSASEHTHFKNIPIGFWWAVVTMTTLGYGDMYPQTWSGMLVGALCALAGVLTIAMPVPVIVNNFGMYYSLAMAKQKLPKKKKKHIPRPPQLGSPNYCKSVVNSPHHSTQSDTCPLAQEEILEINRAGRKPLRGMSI
As to the kind of experiment: Automated patch clamp electrophysiology (Patchliner), CHO/Kv3.1 cells. As to conditions: 10 μM compound, hKv3.1 in CHO-K1, whole-cell; for Kv3.1 Activity at 10 μM Potentiation (%): peak current at voltage step of −10 mV vs vehicle (0.33% DMSO); for Kv3.1 Activity at 10 μM Voltage Shift (mV): voltage shift of the IV curve at V1/2. It is filed as cell-based. As for the experimental part:
hKv3.1, hKv3.2, hKv3.3, and hKv3.4 were stably expressed in CHO-K1 (Chinese hamster ovary) cells and kept under constant antibiotic selection. For in vitro assays, cells were maintained in appropriate growth medium at 37° C. and 5% CO2 in a humidified incubator.
hKv3.X expressing cells were plated in T-25 flasks for 3-4 days at 37° C. (no selection antibiotic) prior to use and grown to 80% confluence. Cells were washed twice with PBS (calcium and magnesium free) and detached with a 5-minute treatment at 37° C. with 2-3 mls of Accutase®. Cells were collected, and flask was washed in CHO-SFM II media (Life Technologies Gibco), centrifuged for 2 minutes at ˜110×g and resuspended to obtain a single cell suspension of ˜2-3×10^6 cells/ml.
The intracellular solution contained the following (in mM): KCl 50, NaCl 10, KF 60, EGTA 20, HEPES 10, adjusted to pH 7.2 with KOH and an osmolarity of 285 mOsmol. Seal enhancer was purchased from Nanion (80 mM NaCl, 3 mM KCl, 10 mM MgCl2, 35 mM CaCl2), 10 mM HEPES, pH7.4, 298 mOsmol. The external solution contained (in mM): NaCl 140, KCl 4, CaCl2) 2, MgCl2 1, HEPES 10, Glucose 5, adjusted to pH7.4 and an osmolarity of 298 mOsmol.
All compounds were initially tested at 10 uM at a final DMSO concentration of 0.33%. Compounds were dissolved in dimethylsulfoxide (DMSO) at a stock concentration of 30 mM. The compound was further diluted 1:10 to give a stock concentration of 3 mM in DMSO. The final assay solution was diluted 1:300 in External solution to give a final concentration of 10 uM. For the DMSO Control Buffer 30 uL of DMSO was added to 10 mL buffer.
All electrophysiological recordings were performed at ambient temperature (21-23° C.) using automated patch clamp (Patchliner, Nanion Technologies GmbH) in the whole-cell configuration.
Cell membrane potentials were held at −80 mV, and currents were evoked by voltage steps (1000 ms duration) from −60 to +60 mV in 10 mV increments. This was performed first with vehicle (0.33% DMSO) and then with 10 uM compound, after a 3-minute incubation period. Data was taken from 4 cells per assay.
The recordings were analysed and selected using peak current amplitude (>100 pA at the −10 mV voltage step) in the absence of compound to eliminate unsuitable cells from analysis. Peak current amplitude was measured and recorded for each voltage step and data was normalised to the maximum current at +60 mV. The normalised Kv3.x currents following addition of the compound were then compared with the currents recorded prior to compound addition (vehicle control). Positive modulation was determined as % potentiation at the voltage step of −10 mV=[current (cmpd)/current (veh)]*100−100. % potentiation≥50% was considered acceptable. In addition, voltage shift of the IV curve at V1/2 was measured. V1/2 of ≥−5 mV was also considered acceptable. IV curves were plotted in GraphPad Prism (software version 6.0) and fitted with a Boltzmann equation, where V1/2 is the voltage at half-maximal activation.

With `CCc1cc(Oc2cc(N3C(=O)NC(C)(C)C3=O)ncn2)ccc1C` [Example 30, 3-[6-(3-ethyl-4-methylphenoxy)pyrimidin-4-yl]-5,5-dimethyl-imidazolidine-2,4-dione], the “Kv3.1 Activity at 10 μM Potentiation (%)” value is recorded as 63% and the “Kv3.1 Activity at 10 μM Voltage Shift (mV)” value is −2.1 mV.
Turning to `CC1(C)NC(=O)N(c2cc(Oc3ccc4c(c3)CCC4)ncn2)C1=O` [Example 31, 3-(6-indan-5-yloxypyrimidin-4-yl)-5,5-dimethyl-imidazolidine-2,4-dione], the “Kv3.1 Activity at 10 μM Potentiation (%)” value was 65% and the “Kv3.1 Activity at 10 μM Voltage Shift (mV)” value is given as −3.3 mV.
On to `CC1(C)NC(=O)N(c2cc(Oc3cccc4c3CCC4)ncn2)C1=O` [Example 32, 3-(6-indan-4-yloxypyrimidin-4-yl)-5,5-dimethyl-imidazolidine-2,4-dione], for which the “Kv3.1 Activity at 10 μM Potentiation (%)” value came out at 13% and the “Kv3.1 Activity at 10 μM Voltage Shift (mV)” value is −1.3 mV.
Taken in the same sequence, the figures for `CC1(C)NC(=O)N(c2cc(Oc3ccc4c(c3)OCCC4)ncn2)C1=O` [Example 33, 3-(6-chroman-7-yloxypyrimidin-4-yl)-5,5-dimethyl-imidazolidine-2,4-dione] were 33% and −1.6 mV.
Take `COc1c(C)cc(Oc2cc(N3C(=O)NC(C)(C)C3=O)ncn2)cc1C` [Example 35, 3-[6-(4-methoxy-3,5-dimethyl-phenoxy)pyrimidin-4-yl]-5,5-dimethyl-imidazolidine-2,4-dione]: the “Kv3.1 Activity at 10 μM Potentiation (%)” value is on record as −10% and the “Kv3.1 Activity at 10 μM Voltage Shift (mV)” value is −0.4 mV.
For `CCOc1cc(Oc2cc(N3C(=O)NC(C)(C)C3=O)ncn2)ccc1C` [Example 36, 3-[6-(3-ethoxy-4-methyl-phenoxy)pyrimidin-4-yl]-5,5-dimethyl-imidazolidine-2,4-dione], the “Kv3.1 Activity at 10 μM Potentiation (%)” value is reported as 17% and the “Kv3.1 Activity at 10 μM Voltage Shift (mV)” value is reported as −3.3 mV.
In the same order, the values of `Cc1ccc(Oc2cc(N3C(=O)NC(C)(C)C3=O)ncn2)cc1OCC1CC1` [Example 37, 3-[6-[3-(cyclopropylmethoxy)-4-methyl-phenoxy]pyrimidin-4-yl]-5,5-dimethyl-imidazolidine-2,4-dione] are 16% and −1.0 mV.
In the same order, the values of `Cc1ccc(Oc2cc(N3C(=O)NC(C)(C)C3=O)ncn2)cc1OC(C)C` [Example 38, 3-[6-(3-isopropoxy-4-methyl-phenoxy)pyrimidin-4-yl]-5,5-dimethyl-imidazolidine-2,4-dione] are 18% and −2.0 mV.
Taken in the same sequence, the figures for `Cc1ccc(Oc2cc(N3C(=O)NC(C)(C)C3=O)ncn2)cc1OCC(C)C` [Example 39, 3-[6-(3-isobutoxy-4-methyl-phenoxy)pyrimidin-4-yl]-5,5-dimethyl-imidazolidine-2,4-dione] were 13% and −2.1 mV.
Regarding `COc1cccc(Oc2cc(N3C(=O)NC(C)(C)C3=O)ncn2)c1C(C)C` [Example 40, 3-[6-(2-isopropyl-3-methoxy-phenoxy)pyrimidin-4-yl]-5,5-dimethyl-imidazolidine-2,4-dione], the “Kv3.1 Activity at 10 μM Potentiation (%)” value was 23% and the “Kv3.1 Activity at 10 μM Voltage Shift (mV)” value is listed as −2.1 mV.
Taken in the same sequence, the figures for `COc1cc(Oc2cc(N3C(=O)NC(C)(C)C3=O)ncn2)ccc1C(F)(F)F` [Example 42, 3-[6-[3-methoxy-4-(trifluoromethyl)phenoxy]pyrimidin-4-yl]-5,5-dimethyl-imidazolidine-2,4-dione] were 11% and “+2.0 mV”.
In the same order, the values of `Cc1ccc(Oc2cc(N3C(=O)NC(C)(C)C3=O)ncn2)cc1OC(F)(F)F` [Example 44, 3-[6-[4-methyl-3-(trifluoromethoxy)phenoxy]pyrimidin-4-yl]-5,5-dimethyl-imidazolidine-2,4-dione] are 33% and −2.9 mV.
In the same order, the values of `CC1(C)NC(=O)N(c2cc(Oc3ccc4c(c3)OC(F)(F)O4)ncn2)C1=O` [Example 45, 3-[6-[(2,2-difluoro-1,3-benzodioxol-5-yl)oxy]pyrimidin-4-yl]-5,5-dimethyl-imidazolidine-2,4-dione] are 19% and −1.7 mV.
`CC[C@@]1(C)NC(=O)N(c2nccc(Oc3ccc(C)c(OC)c3)n2)C1=O` [Example 48, (5R)-5-ethyl-3-[4-(3-methoxy-4-methyl-phenoxy)pyrimidin-2-yl]-5-methyl-imidazolidine-2,4-dione]: the “Kv3.1 Activity at 10 μM Potentiation (%)” value is reported as 32% and the “Kv3.1 Activity at 10 μM Voltage Shift (mV)” value was −2.1 mV.
In the same order, the values of `COc1cc(Oc2cncc(N3C(=O)NC(C)(C)C3=O)n2)ccc1F` [Example 54, 3-[6-(4-fluoro-3-methoxy-phenoxy)pyrazin-2-yl]-5,5-dimethyl-imidazolidine-2,4-dione] are 15% and −0.5 mV.
`CC[C@H]1NC(=O)N(c2cc(Oc3ccc(C)c(OC)c3)ncn2)C1=O` [Example 55, (5R)-5-ethyl-3-[6-(3-methoxy-4-methyl-phenoxy)pyrimidin-4-yl]imidazolidine-2,4-dione]: the “Kv3.1 Activity at 10 μM Potentiation (%)” value is reported as 16% and the “Kv3.1 Activity at 10 μM Voltage Shift (mV)” value is listed as −3.9 mV.
Taken in the same sequence, the figures for `CC[C@H]1NC(=O)N(c2nccc(Oc3ccc(C#N)cc3C(C)(C)C)n2)C1=O` [Example 57, 3-tert-butyl-4-[2-[(4R)-4-ethyl-2,5-dioxo-imidazolidin-1-yl]pyrimidin-4-yl]oxy-benzonitrile] were −7% and “+0.8 mV”.
Taken in the same sequence, the figures for `CC[C@H]1NC(=O)N(c2ccnc(Oc3ccc(C)c(OC)c3)n2)C1=O` [Example 59, (5R)-5-ethyl-3-[2-(3-methoxy-4-methyl-phenoxy)pyrimidin-4-yl]imidazolidine-2,4-dione] were 22% and −1.1 mV.
As for `COc1cc(Oc2ccnc(N3C(=O)NC(C)(C)C3=O)n2)ccc1C` [Example 60, 3-[4-(3-methoxy-4-methyl-phenox)pyrimidin-2-yl]-5,5-dimethyl-imidazolidine-2,4-dione], the “Kv3.1 Activity at 10 μM Potentiation (%)” value came to 22% and the “Kv3.1 Activity at 10 μM Voltage Shift (mV)” value was −2.0 mV.
Taken in the same sequence, the figures for `CC(C)c1cc(Oc2ccnc(N3C(=O)NC(C)(C)C3=O)n2)ccc1C#N` [Example 61, 4-[2-(4,4-dimethyl-2,5-dioxo-imidazolidin-1-yl)pyrimidin-4-yl]oxy-2-isopropyl-benzonitrile] were 21% and −1.6 mV.
In the same order, the values of `CC[C@@]1(C)NC(=O)N(c2ccnc(Oc3ccc(C)c(OC)c3)n2)C1=O` [Example 62, (5R)-5-ethyl-3-[2-(3-methoxy-4-methyl-phenoxy)pyrimidin-4-yl]-5-methyl-imidazolidine-2,4-dione] are 20% and −3.1 mV.
